Activity calls are given as the source filed them.
Tests used:
[1] = cytotoxicity in HPDE-C7 cells, cell-based, fluorescence, HTS (AID 430); assay type: functional; details: Homo sapiens
[2] = inhibitors of intracellular T. cruzi replication, confirmation, NIH3T3 host cells, beta-gal luminescence (AID 2044); assay type: functional, cell-based;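 further: intracellular parasites grown in NIH/3T3 mouse fibroblasts as host cells; luminescent beta-galactosidase reporter signal from transgenic T. cruzi replicating inside host cells; inhibitors lower the luminescence signal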
[3] = cytotoxicity in KRAS-transformed pancreatic duct cells, primary screen, cell-based, fluorescence, HTS (AID 431); assay type: functional; details: Homo sapiens;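 further: cell line used: HPDE-C7K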
[4] = cytotoxicity toward NIH3T3 fibroblasts, dose response, counter-screen, cell-based, ATP luminescence, mouse fibroblasts (AID 2010); assay type: functional; details: NIH3T3;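 further: cells exposed to compound for about 90 hours before reading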
[5] = molecular target: Peroxisome proliferator-activated receptor gamma/Nuclear receptor coactivator 2 (Homo sapiens, UniProt P37231); assay type: functional;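 further: agonist potency for raising coactivator recruitment to the receptor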
Sequence of Peroxisome proliferator-activated receptor gamma/Nuclear receptor coactivator 2 (P37231 whole entry): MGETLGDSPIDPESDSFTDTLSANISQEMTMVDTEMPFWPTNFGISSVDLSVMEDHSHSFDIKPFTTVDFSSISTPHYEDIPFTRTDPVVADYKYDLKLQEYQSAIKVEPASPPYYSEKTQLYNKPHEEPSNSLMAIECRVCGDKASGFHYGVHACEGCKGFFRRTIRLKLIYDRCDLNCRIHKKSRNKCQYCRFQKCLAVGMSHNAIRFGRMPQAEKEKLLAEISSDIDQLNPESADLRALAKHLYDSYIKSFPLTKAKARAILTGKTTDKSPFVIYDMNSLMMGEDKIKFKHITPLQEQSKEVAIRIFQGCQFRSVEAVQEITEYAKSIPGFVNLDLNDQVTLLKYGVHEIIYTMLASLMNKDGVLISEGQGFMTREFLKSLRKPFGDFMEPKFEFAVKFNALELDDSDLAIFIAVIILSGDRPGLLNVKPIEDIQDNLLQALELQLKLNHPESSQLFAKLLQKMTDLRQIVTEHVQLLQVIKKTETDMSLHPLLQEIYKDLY
Sequence of Peroxisome proliferator-activated receptor gamma/Nuclear receptor coactivator 2 (Q15596 whole entry, further chain): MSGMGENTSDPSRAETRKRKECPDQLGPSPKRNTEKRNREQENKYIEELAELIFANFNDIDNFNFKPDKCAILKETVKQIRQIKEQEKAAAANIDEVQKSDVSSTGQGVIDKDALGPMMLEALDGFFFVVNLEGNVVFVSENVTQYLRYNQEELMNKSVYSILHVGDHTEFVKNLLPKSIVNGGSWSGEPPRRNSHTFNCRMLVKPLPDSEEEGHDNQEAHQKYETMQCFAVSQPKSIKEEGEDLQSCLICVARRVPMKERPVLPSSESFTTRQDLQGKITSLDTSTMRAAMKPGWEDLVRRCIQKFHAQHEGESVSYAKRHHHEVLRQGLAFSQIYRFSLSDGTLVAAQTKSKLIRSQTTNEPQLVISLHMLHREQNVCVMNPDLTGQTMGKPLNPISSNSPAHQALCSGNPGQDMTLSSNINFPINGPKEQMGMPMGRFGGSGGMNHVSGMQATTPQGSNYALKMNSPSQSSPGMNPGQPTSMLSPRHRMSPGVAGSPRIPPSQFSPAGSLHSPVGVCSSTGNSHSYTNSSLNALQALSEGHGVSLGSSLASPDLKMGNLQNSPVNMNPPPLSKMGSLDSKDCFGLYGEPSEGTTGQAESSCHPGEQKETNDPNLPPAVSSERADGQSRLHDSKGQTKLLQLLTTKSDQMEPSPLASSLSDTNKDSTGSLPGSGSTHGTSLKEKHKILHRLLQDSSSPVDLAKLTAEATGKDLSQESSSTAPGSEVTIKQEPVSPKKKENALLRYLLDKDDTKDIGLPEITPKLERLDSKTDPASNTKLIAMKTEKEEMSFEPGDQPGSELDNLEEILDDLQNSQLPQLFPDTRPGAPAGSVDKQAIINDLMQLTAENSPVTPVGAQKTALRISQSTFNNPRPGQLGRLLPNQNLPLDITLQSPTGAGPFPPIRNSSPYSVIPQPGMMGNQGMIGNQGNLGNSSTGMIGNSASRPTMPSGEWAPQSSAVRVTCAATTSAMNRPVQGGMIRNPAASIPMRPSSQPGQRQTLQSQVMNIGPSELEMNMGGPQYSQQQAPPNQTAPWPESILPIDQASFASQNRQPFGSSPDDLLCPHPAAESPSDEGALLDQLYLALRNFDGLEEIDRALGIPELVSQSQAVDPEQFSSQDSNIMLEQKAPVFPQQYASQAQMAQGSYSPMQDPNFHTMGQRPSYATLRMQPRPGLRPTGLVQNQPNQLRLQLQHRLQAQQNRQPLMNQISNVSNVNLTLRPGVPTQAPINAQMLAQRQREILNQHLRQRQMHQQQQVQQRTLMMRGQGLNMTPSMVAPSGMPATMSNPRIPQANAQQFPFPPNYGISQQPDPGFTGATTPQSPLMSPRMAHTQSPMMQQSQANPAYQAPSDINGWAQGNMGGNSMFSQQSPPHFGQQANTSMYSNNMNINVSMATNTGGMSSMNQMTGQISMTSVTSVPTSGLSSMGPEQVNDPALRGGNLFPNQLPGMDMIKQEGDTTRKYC

[6] = molecular target: Peroxisome proliferator-activated receptor gamma/Nuclear receptor coactivator 1 (Homo sapiens, UniProt P37231); assay type: functional;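 further: agonist potency as compounds enhance coactivator SRC-1 recruitment to PPARgamma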
Sequence of Peroxisome proliferator-activated receptor gamma/Nuclear receptor coactivator 1 (P37231 whole entry): as the sequence (P37231 whole entry) above
Sequence of Peroxisome proliferator-activated receptor gamma/Nuclear receptor coactivator 1 (Q15788 whole entry, further chain): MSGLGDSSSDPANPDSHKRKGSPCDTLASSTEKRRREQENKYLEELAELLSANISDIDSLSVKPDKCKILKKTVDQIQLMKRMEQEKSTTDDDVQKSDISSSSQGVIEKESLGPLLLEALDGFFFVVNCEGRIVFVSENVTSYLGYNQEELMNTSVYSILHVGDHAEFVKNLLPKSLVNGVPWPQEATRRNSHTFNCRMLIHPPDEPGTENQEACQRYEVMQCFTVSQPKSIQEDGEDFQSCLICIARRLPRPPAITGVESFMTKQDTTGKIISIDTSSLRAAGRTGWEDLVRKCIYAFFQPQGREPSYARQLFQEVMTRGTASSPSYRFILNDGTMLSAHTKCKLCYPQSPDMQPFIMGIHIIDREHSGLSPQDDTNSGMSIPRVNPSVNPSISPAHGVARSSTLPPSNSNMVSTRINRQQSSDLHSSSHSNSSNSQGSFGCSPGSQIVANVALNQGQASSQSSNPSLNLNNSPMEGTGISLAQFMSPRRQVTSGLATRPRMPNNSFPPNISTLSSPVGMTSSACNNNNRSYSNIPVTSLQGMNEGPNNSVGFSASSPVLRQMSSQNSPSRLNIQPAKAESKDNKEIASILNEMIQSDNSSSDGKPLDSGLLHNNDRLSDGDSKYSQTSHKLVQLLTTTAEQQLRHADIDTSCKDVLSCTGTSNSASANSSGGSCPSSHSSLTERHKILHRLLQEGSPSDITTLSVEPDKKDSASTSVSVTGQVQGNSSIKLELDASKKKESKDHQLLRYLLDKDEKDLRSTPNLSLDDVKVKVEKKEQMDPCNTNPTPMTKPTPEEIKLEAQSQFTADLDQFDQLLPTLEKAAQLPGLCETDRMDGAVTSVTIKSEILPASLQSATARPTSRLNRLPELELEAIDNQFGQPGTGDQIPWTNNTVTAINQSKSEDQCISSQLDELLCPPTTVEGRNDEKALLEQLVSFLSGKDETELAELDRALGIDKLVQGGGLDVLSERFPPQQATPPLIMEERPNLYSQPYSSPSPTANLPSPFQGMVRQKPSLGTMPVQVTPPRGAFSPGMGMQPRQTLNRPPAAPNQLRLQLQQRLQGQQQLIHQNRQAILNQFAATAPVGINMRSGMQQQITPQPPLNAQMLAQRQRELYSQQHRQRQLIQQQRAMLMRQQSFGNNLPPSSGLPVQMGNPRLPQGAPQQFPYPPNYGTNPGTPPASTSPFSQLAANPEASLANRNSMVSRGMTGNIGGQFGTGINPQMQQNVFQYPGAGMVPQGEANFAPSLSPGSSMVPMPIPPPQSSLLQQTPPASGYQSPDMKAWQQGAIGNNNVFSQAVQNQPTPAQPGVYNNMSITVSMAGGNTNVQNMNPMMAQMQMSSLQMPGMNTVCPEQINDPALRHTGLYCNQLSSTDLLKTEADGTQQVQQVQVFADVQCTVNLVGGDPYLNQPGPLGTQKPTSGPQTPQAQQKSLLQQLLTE

[7] = molecular target: Peroxisome proliferator-activated receptor gamma/Nuclear receptor coactivator 3 (Homo sapiens, UniProt P37231); assay type: functional;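 further: agonist potency for raising coactivator recruitment to the receptor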
[8] = growth suppression of PTEN-null colon cells, dose response, cell-based, HCT116 PTEN knockout (AID 1047); assay type: functional;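 further: HCT116 colon tumor cells with PTEN knocked out; cells exposed to compound for 60 hours before readout; potency for loss of cell viability measured by luminescence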
[9] = growth suppression of beta-catenin-knockout colon cells, dose response, cell-based, HCT116, human colon tumor (AID 1045); assay type: functional;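 further: HCT116 colon tumor cells with beta catenin knocked out; cells exposed to compound for 60 hours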
[10] = molecular target: T1, DNA repair protein RAD52 homolog (Homo sapiens, UniProt P43351); assay type: functional, biochemical
T1 sequence (P43351 whole entry): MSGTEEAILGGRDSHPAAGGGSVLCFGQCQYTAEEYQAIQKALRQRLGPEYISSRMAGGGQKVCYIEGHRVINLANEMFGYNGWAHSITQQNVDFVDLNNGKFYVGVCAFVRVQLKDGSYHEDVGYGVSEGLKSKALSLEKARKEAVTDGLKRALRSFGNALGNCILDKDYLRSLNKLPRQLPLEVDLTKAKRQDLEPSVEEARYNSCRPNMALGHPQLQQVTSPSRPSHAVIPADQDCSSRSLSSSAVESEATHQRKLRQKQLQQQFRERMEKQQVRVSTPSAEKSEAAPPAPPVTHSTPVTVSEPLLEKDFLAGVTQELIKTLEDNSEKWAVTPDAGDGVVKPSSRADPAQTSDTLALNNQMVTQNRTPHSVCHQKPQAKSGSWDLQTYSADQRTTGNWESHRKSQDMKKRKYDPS

[11] = cells
[12] = molecular target: T2, Mannose-6-phosphate isomerase (Homo sapiens, UniProt P34949); test: inhibitors of human PMI, primary screen, biochemical, fluorescence intensity, coupled assay (AID 1209)
T2 sequence (P34949 whole entry): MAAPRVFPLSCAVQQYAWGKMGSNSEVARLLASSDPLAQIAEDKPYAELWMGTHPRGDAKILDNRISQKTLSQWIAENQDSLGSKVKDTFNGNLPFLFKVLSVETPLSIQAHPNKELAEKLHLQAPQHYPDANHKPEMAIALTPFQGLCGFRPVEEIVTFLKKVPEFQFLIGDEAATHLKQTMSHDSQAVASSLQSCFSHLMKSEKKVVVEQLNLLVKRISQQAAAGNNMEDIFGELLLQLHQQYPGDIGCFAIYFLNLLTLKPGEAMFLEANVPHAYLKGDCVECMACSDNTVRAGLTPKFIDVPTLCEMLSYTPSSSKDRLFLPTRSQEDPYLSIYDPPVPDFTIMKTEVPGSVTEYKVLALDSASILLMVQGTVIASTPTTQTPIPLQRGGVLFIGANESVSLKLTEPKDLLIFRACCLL

[13] = molecular target: T2, Mannose-6-phosphate isomerase; test: human PMI inhibitors, high substrate, primary screen, biochemical, fluorescence intensity, high mannose 6-phosphate (AID 1220)

Cc1cc2oc(=O)cc(CN3CCN(C/C=C/c4ccccc4)CC3)c2cc1O
EC50 [1]: > 20 µM (not active)
EC50 [2]: 0.102 µM (active)
EC50 [3]: > 20 µM (not active)
EC50 [4]: > 60 µM (not active)

O=C(Nc1ccc([N+](=O)[O-])cc1)/C(=C/c1cccc([N+](=O)[O-])c1)NC(=O)C1CCCCC1
EC50 [5]: > 79.4 µM (not active)
EC50 [6]: > 79.4 µM (not active)
EC50 [7]: > 79.4 µM (not active)

O=S(=O)(CCN(CCS(=O)(=O)C(F)(F)F)CC1CCCO1)C(F)(F)F (stereo not drawn)
EC50 [1]: 11.1 µM (active)
EC50 [3]: 10.6 µM (active)
EC50 [8]: 15.3 µM (active)
EC50 [9]: 9.32 µM (active)

COc1cc2nc(N(CCCN(C)C)C(=O)c3ccc(S(=O)(=O)N4CCc5ccccc54)cc3)sc2cc1OC
EC50 [2]: < 0.1 µM (active)
EC50 [4]: 16.4 µM (active)
AC50 [10]: 6.54 µM (active)
EC50 [11]: 0.129 µM (active)

CN(O)/C=N/C(=S)Nc1ccc(Cl)cc1Cl
IC50 [12]: > 50 µM (not active)

CN1C(=O)N(C)C(=O)C2(Cc3c(ccc4ccccc34)N(C)C2)C1=O
IC50 [12]: > 50 µM (not active)
IC50 [13]: > 50 µM (not active)
